Laboratory results as given in patent publication US11938129B2, “Methods and compositions for the treatment of vascular disease” (THE GENERAL HOSPITAL CORPORATION, priority 2018, dated 2024).
Entries after “also recorded” stand apart in the source; their conditions may differ.

Assays:
[1] = tested on: Mmp9; assay: immunofluorescence of Mmp9 in ligated carotid; format: in vivo, mouse; conditions: arterial media and intima of carotid arteries
Description: (§1) All mice used in this study were cared for under strict compliance with the Partners Institutional Animal Care and Use Committee (IACUC), regulated by the United States Public Health Service (USPHS). Carotid ligations were performed in 10 week old mice. Briefly, animals were anesthetized using intraperitoneal ketamine/xylazine (80 and 12 mg/kg, respectively) followed by a small incision in the neck to expose the carotid artery. Then the left carotid was ligated at the carotid bifurcation level using a 8-0 silk suture. At 21 days mice were sacrificed and carotids were collected for histological analysis. Approximately 98% of wild type mice developed stenotic lesions. Mice that developed thrombosis of the ligated carotid were excluded from the study (−1¬2%). Malatl knockout mice were kindly provided by Dr. David Spector (Cold Spring Harbor, N.Y.). Hdac9 flox/flox/Talgn-cre mice were generated as previously reported (10). […]
(§2) Left and right carotids were cryosectioned using OCT standard protocol and sectioning. […] Slides 1, 5, 10, and 15 were H&E stained for quantification of neointima. For quantification of the neointima, internal and external elastic lamina perimeters and medial thickness from 4 quadrants were measured and averaged using Image J software from the National Institutes of Health (NIH). […]

[2] = tested on: a-SMA and SM22a; assay: immunofluorescence of contractile proteins in ligated carotids; format: in vivo, mouse; conditions: ligated carotids of treated mice
Description: All mice used in this study were cared for under strict compliance with the Partners Institutional Animal Care and Use Committee (IACUC), regulated by the United States Public Health Service (USPHS). Carotid ligations were performed in 10 week old mice. Briefly, animals were anesthetized using intraperitoneal ketamine/xylazine (80 and 12 mg/kg, respectively) followed by a small incision in the neck to expose the carotid artery. Then the left carotid was ligated at the carotid bifurcation level using a 8-0 silk suture. At 21 days mice were sacrificed and carotids were collected for histological analysis. Approximately 98% of wild type mice developed stenotic lesions. Mice that developed thrombosis of the ligated carotid were excluded from the study (−1¬2%). Malatl knockout mice were kindly provided by Dr. David Spector (Cold Spring Harbor, N.Y.). Hdac9 flox/flox/Talgn-cre mice were generated as previously reported (10). Ezh2 fl/fl/ (STOCK Ezh2tm2Sho/J) and Myh11-cre-GFP (B6.Cg-Tg(Myh11-cre,-EGFP)2Mik/J) were crossed to generate smooth muscle cell-Ezh2 deficient mice. All above mice and wild-type mice (C57BL/6J) were purchased from Jackson laboratory. For tissue analysis, animals were euthanized through inhalational isoflurane (Sigma, St, Louis, Mo.) prior to tissue collection. All carotid ligation (left carotid) procedures were performed at 10 weeks of age. All experiments were performed on male and female animals at a 1:1 ratio.
Left and right carotids were cryosectioned using OCT standard protocol and sectioning. The right carotid artery was unligated and served as an internal control. Neoinitima analysis was performed from hematoxylin and eosin (H & E) stained horizontal cross-sections embedded in Optimal Cutting Temperature compound (OCT). Briefly, the distal 0.2 mm of carotid from the ligation suture site were discarded followed by generation of 20 slides (10 pM). Slides 1, 5, 10, and 15 were H&E stained for quantification of neointima. For quantification of the neointima, internal and external elastic lamina perimeters and medial thickness from 4 quadrants were measured and averaged using Image J software from the National Institutes of Health (NIH). Slides 2-4, 6-9, and 11-14 were used for immunofluorescence staining.
Cohorts of 10-week-old wild-type mice were treated with oral administration in drinking water of GSK343 24 hrs before left carotid ligation and following treatment for 3 weeks. GSK343 inhibitor (25 mg) was dissolved in 1 mL of DMSO to obtain a stock solution of 46 mM. Then, 250 ml of drinking water was supplemented with 250 pl of GSK343 stock solution. Control group for was given with equal volumes of sterile water. Bottles containing GSK343 were replaced with fresh water supplied with drug every 3 days. […]

[3] = tested on: neointimal formation in ligated carotid; assay: murine carotid artery ligation model: neointimal formation and stenosis (histology); format: in vivo, mouse; conditions: wild-type mice, left carotid ligation, 21 days; GSK343 in drinking water from 24 hrs before ligation for 3 weeks; GapmeR 15 nmol 24 hrs before and 7 days post-ligation
Description: as §1, §2

[4] = tested on: Hdac9; assay: immunofluorescence of Hdac9 in ligated carotid; format: in vivo, mouse; conditions: arterial media and intima of carotid arteries
Description: as §1, §2

[5] = tested on: FAK; assay: immunofluorescence of p-FAK in ligated carotid; format: in vivo, mouse; conditions: media and intima of carotid arteries
Description: as §1, §2

[6] = tested on: PDGFR; assay: immunofluorescence of p-PDGFR in ligated carotid; format: in vivo, mouse; conditions: media and intima of carotid arteries
Description: as §1, §2

[7] = tested on: MMP2 and MMP9 activity; assay: in vivo MMP activity (MMPSense 750 FAST) after carotid ligation; design: species or system mouse; conditions: 24 h post injection, ligated mice
Description: Mice were tail vein injected with 600 uL of MMPSense 750 FAST, a near-infrared fluorescence sensor for MMP2 and MMP9 activity, (PerkinElmer, USA). Mice were sacrificed 24 h post injection and aortas were dissected and analyzed using a Kodak image station 4000MM Pro for macroscopic fluorescence reflectance molecular imaging.
Cohorts of 10-week-old wild-type mice were treated with oral administration in drinking water of GSK343 24 hrs before left carotid ligation and following treatment for 3 weeks. GSK343 inhibitor (25 mg) was dissolved in 1 mL of DMSO to obtain a stock solution of 46 mM. Then, 250 ml of drinking water was supplemented with 250 pl of GSK343 stock solution. Control group for was given with equal volumes of sterile water. Bottles containing GSK343 were replaced with fresh water supplied with drug every 3 days. For Malatl antisense LNA treatments, cohorts of 10-week-old wild-type mice were injected with 15 nmol in saline solution 24 hrs before left carotid ligation following by a second injection 7 days post-ligation.

[8] = tested on: aortic aneurysm in Fbn1C1039G/+ mice; assay: experimental aortic aneurysm in Fbn1C1039G/+ mice: echocardiographic aortic dimensions; format: in vivo, mouse; conditions: Fbn1C1039G/+ mice treated from two to six months of life, drinking water
Source text: Dimensions from each animal represent averages of measurements made on still frames in systole of the maximal internal diameter of the aortic valve annulus, aortic sinuses, sinotubular junction, or ascending aorta by a cardiologist blinded to genotype. The aorta was imaged using a standard parasternal long axis view. Based on historic controls, the mean diameter of the wild type aortic root at 4 months of life is 1.73+/-0.2 mm while in our disease model (Fbn1ci°[…]/+) the mean diameter is 2.15+/-0.3 mm. […] Nair hair removal cream was used on all mice the day prior to echocardiograms. All echocardiograms were performed on awake, unsedated mice using the Visualsonics Vevo imaging system and a 30 MHz transducer. All CT images were acquired using an Inveon small animal micro CT (Siemens Medical Solutions Inc., Malven, Pa.). All mice received intravenous iodinated contrast (Isovue-370, Bracco Diagnostic Inc.) at 20 pL/min during the scan. […] Images were visualized and analyzed in OsiriX software. Cohorts of 8-week-old wild-type or Fbn1cw3gGi+ mice were treated with oral administration in drinking water of either Losartan or GSK343 for 20 weeks (FIG. 5). […] Then 200 mL of drinking water was supplemented with 250 pL of GSK343 stock solution. […] Aortic dimensions were monitored monthly by echocardiograms as mentioned above.

[9] = tested on: TGF-β signaling; assay: TGF-β activity by phosphorylation of Smad2 or Erk1 in aortas of treated mice; format: in vivo, mouse; conditions: aortic tissue of treated Fbn1C1039G/+ mice
Description: (§3) Latex was injected into the left ventricular apex under low pressure until it was visible in the femoral artery. Animals were then fixed in Formalin (10%) for 24 hours before transfer to 70% ethanol for dissection and storage. Aortas were then removed from the animals or dissected in situ for photography prior to paraffinization and sectioning (10 pM). Slides were produced for tissue staining or stained with standard stains including H&E staining, collagen deposition (Trichrome Stain (Masson) Kit, Sigma, USA), elastin (Verhoeff-Van Gieson, Thermo Scientific, MI, USA) or F-actin (ActinGreen™ 488 ReadyProbes, ThermoFisher Scientific, USA) for quantitative analysis. Elastin integrity score was rated by blinded observers and graded on an arbitrary scale of 5 (indicating high quality elastic fiber) to 1 (indicating severe elastin fragmentation). For nuclear staining aortas from human and mice were cryosectioned using OCT standard protocol as described previously (Fischer et al., 2008). Cohorts of 8-week-old wild-type or Fbn1cw3gGi+ mice were treated with oral administration in drinking water of either Losartan or GSK343 for 20 weeks (FIG. 5). […] Then 200 mL of drinking water was supplemented with 250 pL of GSK343 stock solution. […] Aortic dimensions were monitored monthly by echocardiograms as mentioned above.

[10] = tested on: VSMC phenotypic markers; assay: expression of VSMC phenotypic markers in aortas of treated Fbn1C1039G/+ mice; format: in vivo, mouse; conditions: aortas of Fbn1C1039G/+ mice treated from two to six months
Description: Total RNA was prepared from tissue or primary cells using RNeasy kit (Qiagen) following the manufacturer's protocol. The cDNA was prepared by reverse transcription, and expression of SMC contractile genes were analyzed by qRT-PCR on SYBR green system (Applied Biosystem, Foster city, CA). 50 pL of plasma from wild-type or Fbn1cl° 39G1+ mice were used to prepare total RNA as mentioned above. Expression results were analyzed by the ddCT method and GAPDH (encoding glyceraldehyde-3-phosphate dehydrogenase) was used as a housekeeping gene. Fold change were calculated by taking the average over all the control samples as the baseline. […] The supernatant was removed and the vesicular fraction was resuspended with 750 pL of TRizol reagent followed by RNA extraction using the RNeasy kit (Qiagen) according to the manufacturer's protocol. Cohorts of 8-week-old wild-type or Fbn1cw3gGi+ mice were treated with oral administration in drinking water of either Losartan or GSK343 for 20 weeks (FIG. 5). […] Then 200 mL of drinking water was supplemented with 250 pL of GSK343 stock solution. Control group for either drug treatment was given with equal volumes of sterile water. Bottles containing either losartan or GSKS343 were replaced with fresh water supplied with drugs every 3 days. For experiments described in FIG. 5A-5C, 16-week-old wild-type or Fbnicw3gGi+ mice were treated for 8 weeks and as described above. Additionally, a group of mice were given a combination of both losartan and GSK343 at the same concentrations as of other single drug treatments. Aortic dimensions were monitored monthly by echocardiograms as mentioned above.

[11] = tested on: SM22a; assay: immunostaining of SM22a protein in aortas of treated Fbn1C1039G/+ mice; format: in vivo, mouse; conditions: compared to control Fbn1C1039G/+ mice
Description: as §3

[12] = tested on: aortic wall of Fbn1C1039G/+ mice; assay: histologic analysis of aortas of treated Fbn1C1039G/+ mice; format: in vivo, mouse; conditions: aortas of Fbn1C1039G/+ mice treated from two to six months
Description: Latex was injected into the left ventricular apex under low pressure until it was visible in the femoral artery. Animals were then fixed in Formalin (10%) for 24 hours before transfer to 70% ethanol for dissection and storage. Aortas were then removed from the animals or dissected in situ for photography prior to paraffinization and sectioning (10 pM). Slides were produced for tissue staining or stained with standard stains including H&E staining, collagen deposition (Trichrome Stain (Masson) Kit, Sigma, USA), elastin (Verhoeff-Van Gieson, Thermo Scientific, MI, USA) or F-actin (ActinGreen™ 488 ReadyProbes, ThermoFisher Scientific, USA) for quantitative analysis. Elastin integrity score was rated by blinded observers and graded on an arbitrary scale of 5 (indicating high quality elastic fiber) to 1 (indicating severe elastin fragmentation). For nuclear staining aortas from human and mice were cryosectioned using OCT standard protocol as described previously (Fischer et al., 2008). Cohorts of 8-week-old wild-type or Fbn1cw3gGi+ mice were treated with oral administration in drinking water of either Losartan or GSK343 for 20 weeks (FIG. 5). […] Then 200 mL of drinking water was supplemented with 250 pL of GSK343 stock solution. Control group for either drug treatment was given with equal volumes of sterile water. Bottles containing either losartan or GSKS343 were replaced with fresh water supplied with drugs every 3 days. For experiments described in FIG. 5A-5C, 16-week-old wild-type or Fbnicw3gGi+ mice were treated for 8 weeks and as described above. Additionally, a group of mice were given a combination of both losartan and GSK343 at the same concentrations as of other single drug treatments. Aortic dimensions were monitored monthly by echocardiograms as mentioned above.

[13] = tested on: H3K27me3; assay: H3K27me3 staining in aortas of treated Fbn1C1039G/+ mice; format: in vivo, mouse; conditions: compared to control or losartan treated mice
Description: as §3

| Compound | accumulation of Mmp9 [1] | expression of contractile proteins such as a-SMA and SM22a [2] | extent of the stenotic response / neointimal formation [3] | accumulation of Hdac9 [4] | phosphorylation of FAK [5] | phosphorylation of PDGFR [6] | activity of MMPs [7] | aortic dimensions [8] | TGF-β activity as assessed by phosphorylation of Smad2 or Erk1 protein [9] | synthetic markers (Col1a1, Col3a1, Gja1, Mmp2) [10] | SM22a protein expression (immunostaining of aortas) [11] | aortic architecture and filamentous actin content [12] | elastin integrity [12] | H3K27me3 staining / aortic medial H3K27me3 modifications [13] |
| --- | --- | --- | --- | --- | --- | --- | --- | --- | --- | --- | --- | --- | --- | --- |
| GapmeR-Malatl: GapmeR antisense oligonucleotide against MALAT1, GTCACAATGCATTCTA (SEQ ID NO: 1) (LNA gapmer, pattern not given here) | decreased accumulation | improved the expression of contractile proteins | significant inhibition of neointimal formation; also recorded: dramatically improved the extent of the stenotic response | decreased accumulation | dramatic reduction | dramatic reduction | Inhibition of Mmp activity; also recorded: inhibited the activity of MMPs |  |  |  |  |  |  |  |
| CCCCc1nc(Cl)c(CO)n1Cc1ccc(-c2ccccc2-c2nnn[n-]2)cc1.[K+] [Losartan] |  |  |  |  |  |  |  | ability to improve aortic dimensions | reduced | better ability to decrease | recovery of SM22a protein expression | improvement | improve elastin integrity overall | did not |
